This is an account of results in EP3345917A1, “ANTIPROTOZOAL COMPOUNDS” (Bacoba AG, priority 2017, dated 2018).

Where two headings read alike, the source gives them in different places. Non-standard residues stand in square brackets, D forms with d. Residues, ends and D or L forms follow the SMILES beside them. *: point of attachment. CH3O(CH2CH2O)11CH2CH2CO = COCCOCCOCCOCCOCCOCCOCCOCCOCCOCCOCCOCCC(=O)*; Hexenoyl(2E,4S-Me) = CC[C@H](C)/C=C/C(=O)*; Leu(3R-OH) = CC(C)[C@@H](O)[C@H](N)C(=O)O; NH((S)CH(Me)CH2NMe2) = C[C@@H](CN(C)C)N*; NH(1-CH2NMe2-cBu) = CN(C)CC1(N*)CCC1; Gly(octyl) = CCCCCCCC[C@H](N)C(=O)O; Oxazole4CO(2-Me) = Cc1nc(C(=O)*)co1; X3 = O=C(c1coc(-c2ccccc2)n1)*; Morpholide = C1CN(*)CCO1; X24 = CN1CC2(C1)CN(*)C2; X25 = CN(C)CC1(N*)CCCC1; X23 = CN1CCC12CN(*)C2; Aib = CC(C)(N)C(=O)O; βAla = NCCC(=O)O

In series [1] the test system is Trypanosoma brucei rhodesiense (STIB 900 strain). The experiment in a line: Alamar Blue assay against Trypanosoma brucei rhodesiense grown in axenic medium. It counts as cell-based. As to the method:
(§1) Tests were done in triplicate.
Trypanosoma brucei rhodesiense (STIB 900) were grown in axenic medium as described by Baltz et al. (1985) The samples were tested using the Alamar Blue assay protocol (Baltz T et al. EMBO J 1985; 4:1273-1277) to determine the 50% inhibitory concentration (IC50). […] Melarsoprol (Arsobal®, Sanofi-Aventis, Switzerland) was used as a reference drug (IC50= 0.03 ± 0.01 µM). Its purity was over 95 %, as was certified by the supplier. The IC50 values were calculated by using Softmax Pro software (Molecular Devices Cooperation, Sunnyvale, CA).
For orientation: The colour change of resazurin is a common sign of viable cells or microbes.

Series [2] concerns Trypanosoma cruzi trypomastigote forms (Tulahuen strain). The experiment in a line: Intracellular Trypanosoma cruzi assay in L6-cells, beta-galactosidase/CPRG readout. The series is classed as cell-based. As to the method:
as §1
Trypanosoma cruzi trypomastigote forms (Tulahuen strain C2C4 containing β-galactosidase (Lac Z) gene) were cultured as described by Buckner et al. (Buckner FS et al. Antimicrob Agents Ch1996; 40: 2592-2597) in rat myoblast cells (L6-cells). […] After incubation, the substrate chlorophenyl red β-D-galactopyranoside agent CPRG/Nonident was added to all wells and a color change was developed within 2 to 6 h. The plates were read photometrically at 540 nm (Molecular Devices). Data were evaluated and IC50 values calculated using Softmax Pro software (Molecular Devices).

The subject of series [3] is Axenically grown Leishmania donovani amastigotes (strain MHOM/ET/67/L82). The series is described as follows: Axenic Leishmania donovani amastigote resazurin assay. The series is classed as cell-based. As to the method:
as §1
Axenically grown Leishmania donovani amastigotes (strain MHOM/ET/67/L82) were grown and tests were done as previously described using the resazurin assay (Räz B et al. Acta Tropica 1997, 68:139-147). The plates were developed for 2-4 hours and read on a Spectramax Gemini XS micro plate fluorometer (Molecular Devices Cooperation) using an excitation wavelength of 536 nm and emission wavelength of 588 nm. Fluorescence development was measured and expressed as percentage of the negative control. […] Data were transferred to the graphic programme Softmax Pro (Molecular Devices), with which IC50 values were calculated.

Another series relates to Plasmodium falciparum. The series is described as follows: 3H-hypoxanthine incorporation assay against Plasmodium falciparum. The series is classed as cell-based. The following applies: In vitro inhibition, read-out: P.falc NF5. As to the method: as §1
IC50 values were calculated by linear interpolation.

Series [4] in a line: Cytotoxicity assay on L6-cells (Alamar Blue). The conditions noted are these: rat, Cytotox L6, Cytotoxicity against rat myoblast cells (L6).
Procedure: Tests were done in triplicate. IC50 values against the parasites as well as cytotoxic effects against rat myoblast (L6-cells) were determined by serial dilution and repeated twice.
After 68 h of incubation under humidified 5% CO2 atmosphere, 10 µl of the Alamar blue marker was added to all wells. The plates were incubated for an additional 2 h. […] The IC50S were calculated by Softmax Pro software (Molecular Devices Cooperation, Sunnyvale, CA). […] Cytotoxicity was measured against rat myoblast cells (Cytotox L6).
Setting [5] is: In vitro inhibition, read-out: T.b.rhod.
Where [6] appears, read: In vitro inhibition, read-out: T.cruzi.
[7] abbreviates: In vitro inhibition, read-out: L.don. ax.

As to `CCCCCCCC[C@H](NC(=O)[C@@H]1CCCN1C(=O)/C=C/[C@@H](C)CC)C(=O)N[C@H](C(=O)NCCC(=O)N[C@@H](C)CN(C)C)[C@H](O)C(C)C` [Compound 5523, (2S)-N-[(1S,2R)-1-[(2-{[(2S)-1-(dimethylamino)propan-2-yl]carbamoyl}ethyl)carbamoyl]-2-hydroxy-3-methylbutyl]-2-{[(2S)-1-[(2E,4S)-4-methylhex-2-enoyl]pyrrolidin-2-yl]formamido}decanamide], the IC50 in series [1] (setting [5]) was 2440 nM; in series [2] (setting [6]), 5730 nM; in series [3] (setting [7]), 0.482 µM; with Plasmodium falciparum, 4.75 µM. In series [4], this compound yielded an IC50 at 70 h of 8.61 µM.

For the compound `CCCCCCCC[C@H](NC(=O)[C@@H]1CCCN1C(=O)c1coc(C)n1)C(=O)N[C@@H](CC(C)C)C(=O)NC(C)(C)C(=O)N[C@@H](CC(C)C)C(=O)N[C@@H](CC(C)C)C(=O)NC(C)(C)C(=O)NC(C)(C)C(=O)NCCC(=O)N1CC2(CN(C)C2)C1` [Compound 6256, (2S)-2-{[(2S)-1-(2-methyl-1,3-oxazole-4-carbonyl)pyrrolidin-2-yl]formamido}-N-[(1S)-3-methyl-1-[(1-methyl-1-[(1S)-3-methyl-1-{[(1S)-3-methyl-1-{{[1-methyl-1-({1-methyl-1-[(3-{6-methyl-2,6-diazaspiro[3.3]heptan-2-yl}-3-oxopropyl)carbamoyl]ethyl}carbamoyl)ethyl]carbamoyl}butyl]carbamoyl}butyl]carbamoyl}ethyl)carbamoyl]butyl]decanamide] ({Oxazole4CO(2-Me)}-P[Gly(octyl)]L[Aib]LL[Aib][Aib][βAla]-X24), the IC50 stood at 316 nM in series [1] (setting [5]), 4010 nM in series [2] (setting [6]) and 8.67 µM in series [3] (setting [7]). In addition, the IC50 at 70 h in series [4] is over 8.06 µM.

`CCCCCCCC[C@H](NC(=O)[C@@H]1CCCN1C(=O)/C=C/[C@@H](C)CC)C(=O)N[C@H](C(=O)NC(C)(C)C(=O)N[C@@H](CC(C)C)C(=O)N[C@@H](CC(C)C)C(=O)NC(C)(C)C(=O)NC(C)(C)C(=O)NCCC(=O)N[C@@H](C)CN(C)C)[C@@H](C)O` [Compound 5520] ({Hexenoyl(2E,4S-Me)}-P[Gly(octyl)]T[Aib]LL[Aib][Aib][βAla]-{NH((S)CH(Me)CH2NMe2)}): the IC50 at 70 h in series [4] is 0.93 µM.

In the case of `CCCCCCCC[C@H](NC(=O)[C@@H]1CCCN1C(=O)c1coc(C)n1)C(=O)N[C@@H](CC(C)C)C(=O)NC(C)(C)C(=O)N[C@@H](CC(C)C)C(=O)N[C@@H](CC(C)C)C(=O)NC(C)(C)C(=O)NC(C)(C)C(=O)NCCC(=O)N1CC2(CCN2C)C1` [Compound 6255, (2S)-2-{[(2S)-1-(2-methyl-1,3-oxazole-4-carbonyl)pyrrolidin-2-yl]formamido}-N-[(1S)-3-methyl-1-[(1-methyl-1-[(1S)-3-methyl-1-{[(1S)-3-methyl-1-{{[1-methyl-1-({1-methyl-1-[(3-{1-methyl-1,6-diazaspiro[3.3]heptan-6-yl}-3-oxopropyl)carbamoyl]ethyl}carbamoyl)ethyl]carbamoyl}butyl]carbamoyl}butyl]carbamoyl}ethyl)carbamoyl]butyl]decanamide] ({Oxazole4CO(2-Me)}-P[Gly(octyl)]L[Aib]LL[Aib][Aib][βAla]-X23), the IC50 in series [1] (setting [5]) was found to be 461 nM; in series [2] (setting [6]), 3710 nM; in series [3] (setting [7]), 4.09 µM. In series [4], this compound gave an IC50 at 70 h of 7.17 µM.

Consider `CCCCCCCC[C@H](NC(=O)[C@@H]1CCCN1C(=O)c1coc(C)n1)C(=O)N[C@@H](CC(C)C)C(=O)NC(C)(C)C(=O)N[C@@H](CC(C)C)C(=O)N[C@@H](CC(C)C)C(=O)NC(C)(C)C(=O)NC(C)(C)C(=O)NCCC(=O)NC1(CN(C)C)CCCC1` [Compound 6254, (2S)-N-[(1S)-1-[(1-{[(1S)-1-{[(1S)-1-({1-[(1-{[2-({1-[(dimethylamino)methyl]cyclopentyl}carbamoyl)ethyl]carbamoyl}-1-methylethyl)carbamoyl]-1methylethyl}carbamoyl)-3-methylbutyl]carbamoyl}-3-methylbutyl]carbamoyl}-1-methylethyl)carbamoyl]-3-methylbutyl]-2-{[(2S)-1-(2-methyl-1,3-oxazole-4-carbonyl)pyrrolidin-2-yl]formamido}decanamide] ({Oxazole4CO(2-Me)}-P[Gly(octyl)]L[Aib]LL[Aib][Aib][βAla]-X25), for which the IC50 is under 0.8 nM in series [1] (setting [5]), 34.6 nM in series [2] (setting [6]) and 13.9 µM in series [3] (setting [7]).

In series [4], `CCCCCCCC[C@H](NC(=O)[C@@H]1CCCN1C(=O)/C=C/[C@@H](C)CC)C(=O)N[C@H](C(=O)NC(C)(C)C(=O)N[C@@H](CC(C)C)C(=O)N[C@@H](CC(C)C)C(=O)NC(C)(C)C(=O)NC(C)(C)C(=O)NCCC(=O)N1CCOCC1)[C@H](O)C(C)C` [Compound 5572] ({Hexenoyl(2E,4S-Me)}-P[Gly(octyl)][Leu(3R-OH)][Aib]LL[Aib][Aib][βAla]-Morpholide) displayed an IC50 at 70 h of 1.42 µM.

As for `Nc1nc(N)nc(Nc2ccc([As]3SCC(CO)S3)cc2)n1` (stereo not shown) [Melarsoprol, melarsoprol], the IC50 in series [1] (read-out: T.b.rhod.) was found to be 7 nM; in series [1] (reference drug, T. b. rhodesiense STIB 900, Alamar Blue, read-out: IC50), 30 ± 10 nM.

Take `CCCCCCCCCCCCCCCCOP(=O)([O-])OCC[N+](C)(C)C` [Miltfosine]: the IC50 in series [3] (Leishmania donovani, reference drug, axenic L. donovani amastigotes, resazurin assay, read-out: IC50) amounted to 0.241 µg/mL.

Consider `O=C(Cn1ccnc1[N+](=O)[O-])NCc1ccccc1` [Benznidazol], for which, in series [2] (TULAHUEN, In vitro inhibition, intracellular Trypanosoma cruzi, read-out: T.cruzi.), the IC50 worked out at 2080 nM.

As for `CCCCCCCC[C@H](NC(=O)[C@@H]1CCCN1C(=O)c1coc(-c2ccccc2)n1)C(=O)N[C@@H](CC(C)C)C(=O)NC(C)(C)C(=O)N[C@@H](CC(C)C)C(=O)N[C@@H](CC(C)C)C(=O)NC(C)(C)C(=O)NC(C)(C)C(=O)NCCC(=O)N[C@@H](C)CN(C)C` [Compound 5906, (2S)-N-[(1S)-1-[(1-{[(1S)-1-{[(1S)-1-{[1-({1-[(2-{[(2S)-1-(dimethylamino)propan-2-yl]carbamoyl}ethyl)carbamoyl]-1-methylethyl}carbamoyl)-1-methylethyl]carbamoyl}-3-methylbutyl]carbamoyl}-3-methylbutyl]carbamoyl}-1-methylethyl)carbamoyl]-3-methylbutyl]-2-{[(2S)-1-(2-phenyl-1,3-oxazole-4-carbonyl)pyrrolidin-2-yl]formamido}decanamide] (X3-P[Gly(octyl)]L[Aib]LL[Aib][Aib][βAla]-{NH((S)CH(Me)CH2NMe2)}), in series [4], the IC50 at 70 h turned out to be 0.445 µM.

In series [4], `CCCCCCCC[C@H](NC(=O)[C@@H]1CCCN1C(=O)CCOCCOCCOCCOCCOCCOCCOCCOCCOCCOCCOCCOC)C(=O)N[C@@H](CC(C)C)C(=O)NC(C)(C)C(=O)N[C@@H](CC(C)C)C(=O)N[C@@H](CC(C)C)C(=O)NC(C)(C)C(=O)NC(C)(C)C(=O)NCCC(=O)N[C@@H](C)CN(C)C` [Compound 6067, (2S)-N-[(1S)-1-[(1-{[(1S)-1-{[(1S)-1-{[1-({1-[(2-{[(2S)-1-(dimethylamino)propan-2-yl]carbamoyl}ethyl)carbamoyl]-1-methylethyl}carbamoyl)-1-methylethyl]carbamoyl}-3-methylbutyl]carbamoyl}-3-methylbutyl]carbamoyl}-1-methylethyl)carbamoyl]-3-methylbutyl]-2-{[(2S)-1-(2,5,8,11,14,17,20,23,26,29,32,35-dodecaoxaoctatriacontanoyl)pyrrolidin-2-yl]formamido}decanamide] ({CH3O(CH2CH2O)11CH2CH2CO}-P[Gly(octyl)]L[Aib]LL[Aib][Aib][βAla]-{NH((S)CH(Me)CH2NMe2)}) gave an IC50 at 70 h of 4.64 µM.

Consider `O=C(Cn1ccnc1[N+](=O)[O-])NCc1ccccc1` [Benznidazole, benznidazole], for which the IC50 in series [2] (Trypanosoma cruzi, standard drug, T. cruzi Tulahuen C2C4 in L6-cells, read-out: IC50) came out at 0.48 µg/mL.

Consider `CCCCCCCC[C@H](NC(=O)[C@@H]1CCCN1C(=O)c1coc(C)n1)C(=O)N[C@@H](CC(C)C)C(=O)NC(C)(C)C(=O)N[C@@H](CC(C)C)C(=O)N[C@@H](CC(C)C)C(=O)NC(C)(C)C(=O)NC(C)(C)C(=O)NCCC(=O)NC1(CN(C)C)CCC1` [Compound 6253, (2S)-N-[(1S)-1-[(1-{[(1S)-1-{[(1S)-1-({1-[(1-{[2-({1-[(dimethylamino)methyl]cyclobutyl}carbamoyl)ethyl]carbamoyl}-1-methylethyl)carbamoyl]-1-methylethyl}carbamoyl)-3-methylbutyl]carbamoyl}-3-methylbutyl]carbamoyl}-1-methylethyl)carbamoyl]-3-methylbutyl]-2-{[(2S)-1-(2-methyl-1,3-oxazole-4-carbonyl)pyrrolidin-2-yl]formamido}decanamide] ({Oxazole4CO(2-Me)}-P[Gly(octyl)]L[Aib]LL[Aib][Aib][βAla]-{NH(1-CH2NMe2-cBu)}), for which the IC50 in series [1] (setting [5]) is under 0.9 nM; in series [2] (setting [6]), 68.4 nM; in series [3] (setting [7]), 46.8 µM.
